Legend:
Assay type in all cases: in vivo
Phakopsora pachyrhizi = test: Use Example 2: curative control of soybean rust on soybeans (PHAKPA K2); conditions: 16 ppm, F129L strain, up to 14 days, untreated 90
Protocol: (§1) The compound was dissolved in a mixture of acetone and/or dimethylsulfoxide and the wetting agent/emulsifier Wettol, which is based on ethoxylated alkylphenoles, in a ratio (volume) solvent-emulsifier of 99 to 1 to give a total volume of 5 ml. Subsequently, water was added to total volume of 100 ml. This stock solution was then diluted with the described solvent-emulsifier-water mixture to the final concentration given in the tables below.
Use Example 2. Curative Control of Soybean Rust on Soybeans Caused by Phakopsora pachyrhizi (PHAKPA K2)
Leaves of potted soybean seedlings were inoculated with spores of Phakopsora pachyrhizi. The strain used contains the amino acid substitution F129L in the mitochondrial cytochrome b protein conferring resistance to Qo inhibitors. To ensure the success of the artificial inoculation, the plants were transferred to a humid chamber with a relative humidity of about 95% and 20 to 24° C. for 24 h. The next day the plants were cultivated for 1 day in a greenhouse chamber at 23-27° C. and a relative humidity between 60 and 80%. Then the plants were sprayed to run-off with the previously described spray solution, containing the concentration of active ingredient or their mixture as described below. The plants were allowed to air-dry. Then the trial plants were cultivated up to 14 days in a greenhouse chamber at 23-27° C. and a relative humidity between 60 and 80%. The extent of fungal attack on the leaves was visually assessed as % diseased leaf area.

Puccinia sorghi = test: Use Example 8: protective control of corn rust on corn (PUCCSO P1); conditions: 16 ppm, untreated 80%
Protocol: as §1
Use Example 8. Protective Control of Corn Rust on Corn Caused by Puccinia sorghi (PUCCSO P1)
The primary leaves of potted corn seedling were sprayed to run-off with previously described spray solution, containing the concentration of active ingredient or their mixture as described below. One day later the plants were dusted with before harvested spores of Puccinia sorghi. To ensure the success of the artificial inoculation, the plants were transferred to a humid chamber without light and a relative humidity of […] and 20 to 24° C. and were there incubated for about fourteen days. The extent of fungal attack on the primary leaves was visually assessed as % diseased leaf area.

Sclerotinia sclerotiorum = test: Use Example 13: preventative fungicidal control of white mold on soy beans (SCLESC P1 mycelium); conditions: 63 ppm, untreated 85%
Protocol: as §1
Use Example 13. Preventative Fungicidal Control of White Mold on Soy Beans Caused by Sclerotinia sclerotiorum (SCLESC P1 Mycelium)
Young seedlings of soy beans were grown in pots. These plants were sprayed to run-off with previously described spray solution, containing the concentration of active ingredient or mixture mentioned in the table below. The next day the treated plants were inoculated with a biomalt suspension, containing the mycelium of Sclerotinia sclerotiorum. Then the trial plants were cultivated for 6 days in a greenhouse chamber at 23° C. and a relative humidity between 80 and 85%. The extent of fungal attack on the leaves was visually assessed as % diseased leaf area.

Row | Compound | Diseased leaf area (%) (Phakopsora pachyrhizi) | Diseased leaf area (%) (Puccinia sorghi) | Diseased leaf area (%) (Sclerotinia sclerotiorum)
1 | CNC(=O)/C(=N/OC)c1cccc(C)c1CO/N=C(\COC)c1c(F)cc(F)cc1F [Compound 1, (2E)-2-methoxyimino-2-[2-[[(Z)-[2-methoxy-1-(2,4,6-trifluorophenyl)ethylidene]amino]oxymethyl]-3-methyl-phenyl]-N-methyl-acetamide] | 0% | – | –
2 | COC/C(=N\OCc1c(C)cccc1/C(=N\OC)C(=O)OC)c1c(F)cc(F)cc1F [Compound 2, methyl (2E)-2-methoxyimino-2-[2-[[(Z)-[2-methoxy-1-(2,4,6-trifluorophenyl)ethylidene]amino]oxymethyl]-3-methyl-phenyl]acetate] | 2% | – | –
3 | CO/C=C(/C(=O)OC)c1cccc(C)c1CO/N=C(\COC)c1c(F)cc(F)cc1F [Compound 4, methyl (E)-3-methoxy-2-[2-[[(Z)-[2-methoxy-1-(2,4,6-trifluorophenyl)ethylidene]amino]oxymethyl]-3-methyl-phenyl]prop-2-enoate] | 5% | – | –
4 | CNC(=O)/C(=N/OC)c1cccc(C)c1CO/N=C(\COC)c1ccc(F)c(F)c1 [Compound 5, (2E)-2-[2-[[(Z)-[1-(3,4-difluorophenyl)-2-methoxy-ethylidene]amino]oxymethyl]-3-methylphenyl]-2-methoxyimino-N-methyl-acetamide] | 6% | 0% | –
5 | CNC(=O)/C(=N/OC)c1cccc(C)c1CO/N=C(\COC)c1c(F)cc(OC)cc1F [Compound 7, (2E)-2-[2-[[(Z)-[1-(2,6-difluoro-4-methoxy-phenyl)-2-methoxy-ethylidene]amino]oxymethyl]-3-methyl-phenyl]-2-methoxyimino-N-methyl-acetamide] | 4% | 12% | 4%

Source: patent publication US20260317272A1, “USE OF STROBILURIN TYPE COMPOUNDS FOR COMBATING PHYTOPATHOGENIC FUNGI CONTAINING AN AMINO ACID SUBSTITION F129L IN THE MITOCHONDRIAL CYTOCHROME B PROTEIN CONFERRING RESISTANCE TO QO INHIBITORS XVI” (priority 2023, published 2026)
